Measured values published in US3991210A, “Acetamidine urinary antiseptics” (The Dow Chemical Company, priority 1975, dated 1976).
Structures can show the parent of a compound that is named as a salt.

Columns and labels:
[1] = test system: Proteus species, either Proteus vulgaris or Proteus mirabilis; test: Antimicrobial activity of urine collected from mice after oral dosing, against a Proteus species (Example 1); format: in vivo, Proteus vulgaris or Proteus mirabilis (urine from mice); details: for antimicrobial activity of urine against Proteus: 60 mg/kg, similar operations; for antimicrobial activity of urine against Proteus species: oral, 50 mg/kg, urine collected 1 to 24 hours
Procedure: (§1) Separate groups of mice are fasted overnight, but are provided with water ad libitum prior to oral administration of a substituted amidine test compound. […] Urine is collected in sterile containers at intervals over the period from 1 to 24 hours after administration of the test compound. The collected urine is assayed for antimicrobial activity against Escherichia coli, Pseudomonas aeruginosa and a Proteus species, either Proteus vulgaris or Proteus mirabilis. Urine samples collected from the separate groups of mice administered one of 2-(4-chlorophenyl)acetamidine hydrochloride, 2-(4-bromophenyl)-acetamidinehydrochloride, 2-(4-chlorophenyl)acetamidoxime hydrochloride and 2-(4-bromophenyl)acetamidoxime hydrochloride are found to be active against all three test organisms.

Pseudomonas aeruginosa = test: Antimicrobial activity of urine collected from mice after oral dosing, against Pseudomonas aeruginosa; format: in vivo; details: for antimicrobial activity of urine against Pseudomonas: 60 mg/kg, similar operations; for antimicrobial activity of urine against Pseudomonas aeruginosa: oral, 50 mg/kg, urine collected 1 to 24 hours; for urinary antiseptic activity, PA: single oral dose 56.2 mg/kg; on urinary antiseptic activity, PA: key: +: urinary antiseptic activity and inhibition of microbial growth being observed; O: no urinary antiseptic activity and no inhibition of microbial growth are observed
Procedure: as §1
(§2) The procedure of Example 1 is repeated, employing the substituted amidine compound 2-(4-bromophenyl)-acetamidine hydrochloride, and the known antiseptics gentamicin and nalidixic acid as test compounds. […]

Escherichia coli = test: Antimicrobial activity of urine collected from mice after oral dosing, against Escherichia coli; format: in vivo; details: for urinary antiseptic activity, EC: single oral dose 56.2 mg/kg; on urinary antiseptic activity, EC: key: +: urinary antiseptic activity and inhibition of microbial growth being observed; O: no urinary antiseptic activity and no inhibition of microbial growth are observed
Procedure: as §1, §2

Proteus vulgaris = test: Antimicrobial activity of urine collected from mice after oral dosing, against Proteus vulgaris (Example 2); format: in vivo; details: single oral dose 56.2 mg/kg; further: key: +: urinary antiseptic activity and inhibition of microbial growth being observed; O: no urinary antiseptic activity and no inhibition of microbial growth are observed
Procedure: Separate groups of mice are fasted overnight, but are provided with water ad libitum prior to oral administration of a substituted amidine test compound. The test compounds are administered orally at a dosage rate of 50 milligrams of test compound per kilogram of animal body weight in an aqueous carrier. Urine is collected in sterile containers at intervals over the period from 1 to 24 hours after administration of the test compound. The collected urine is assayed for antimicrobial activity against Escherichia coli, Pseudomonas aeruginosa and a Proteus species, either Proteus vulgaris or Proteus mirabilis. Urine samples collected from the separate groups of mice administered one of 2-(4-chlorophenyl)acetamidine hydrochloride, 2-(4-bromophenyl)-acetamidinehydrochloride, 2-(4-chlorophenyl)acetamidoxime hydrochloride and 2-(4-bromophenyl)acetamidoxime hydrochloride are found to be active against all three test organisms.
The procedure of Example 1 is repeated, employing the substituted amidine compound 2-(4-bromophenyl)-acetamidine hydrochloride, and the known antiseptics gentamicin and nalidixic acid as test compounds. Each test compound is administered in a single oral dose of 56.2 milligrams per kilogram; and separate urine samples are separately collected and assayed at intervals of 1, 4 and 24 hours after administration.

[2] = Standard pharmacological evaluation procedures in mice; format: in vivo; details: 60 mg/kg
Procedure: In other operations, 2-(4-bromophenyl)acetamidine hydrochloride is administered to mice at a dosage rate of 60 milligrams per kilogram in a series of standard pharmacological evaluation procedures.

Proteus mirabilis [3] = test: Proteus mirabilis urinary tract infection in Wistar rats, 14 days treatment (Example 4); format: in vivo; details: infected Wistar rats, oral
Description: (§3) Several groups of Wistar rats are surgically prepared and given a urinary tract infection by injection into the lumen of the bladder of 0.1 milliliter of a brain-heart infusion broth culture of Proteus mirabilis, in a procedure similar to that of Miraglia, Transact. N.Y. Acad. Sc. 32, 337 (1970). One group is similarly prepared surgically, but is not infected with the test organism, providing an operated, non-infected control group. Three hours after the surgical operations are complete, the animals in three of the groups (the test groups) are orally administered 100 milligrams per kilogram of nalidixic acid, or 2-(4-bromophenyl)acetamidine hydrochloride at a dosage rate of 50 or 100 milligrams per kilogram. A fourth group is not administered any test compound to serve as an infected control group.
(§4) The animals in each group are weighed daily and the test compounds are administered to the test groups daily at the same dosage rate for a total of 14 days. At the end of the 14 day test period, the animals are sacrificed. Swabs of the kidney pelvis and samples of bladder urine are obtained and examined by bacteriological culture techniques, and pathological examinations are carried out.

[4] = Acute oral lethality (LD50) in mice; details: mouse, in vivo, mice, per os, 24 hours, read-out: LD50 (dosage lethal to 50 percent of the mice)
Procedure: Separate groups of mice are separately administered an aqueous composition containing 2-(4-bromophenyl)acetamidine hydrochloride. The compound is administered per os at various dosage rates, and the animals are held for 24 hours, after which deaths are recorded, and the LD50 (dosage lethal to 50 percent of the mice) is determined.

Proteus mirabilis [5] = test: Proteus mirabilis urinary tract infection in Holtzman rats (Example 5); format: in vivo; details: PO
Description: as §3, §4
The operations of Example 4 are repeated using six Holtzman rats per group and using nitrofurantoin instead of nalidixic acid.

Proteus mirabilis [6] = test: Proteus mirabilis urinary tract infection in rats, bacterial count per kidney (Example 6); format: in vivo; details: oral, three doses at 4, 28, 52 hours, 72 hours
Procedure: In a similar operation, a Proteus mirabilis urinary tract infection was established in rats using a similar surgical technique. In separate groups, the test compound 2-(4-bromophenyl)acetamidine p-toluene-sulfonate, or the reference compound nalidixic acid, were administered orally in three doses, 4, 28 and 52 hours after completion of the surgical technique used to establish the infection. Separate groups of rats were left untreated to serve as controls. After 72 hours, the animals were euthanized with carbon dioxide. The left kidney was removed, homogenized in 9 milliliters sterile saline solution, and fivefold dilutions of the resulting brei were made in brain-heart infusion broth. Bacterial counts in the dilutions were determined after 24 hours incubation at 37° C. The oral dose in milligrams per kilogram (mg/kg); millimoles per kilogram (mM); the number of animals in each group, and the base ten logarithm (Log10) of the bacterial count (number of organisms per kidney) are set out below.

[7] = 50 or 100 mg/kg per day, 14 days
[8] = oral, 50 mg/kg, urine collected 1 to 24 hours

With `NC(Cc1ccc(Cl)cc1Cl)=NO` [2-(2,4-dichlorophenylacetamidoxime hydrochloride, reference compound] the “antimicrobial activity of urine against Proteus” value [1] was “ineffective”, the “antimicrobial activity of urine against Pseudomonas” value (Pseudomonas aeruginosa) was “ineffective” and the “antimicrobial activity of urine against E. coli” value (Escherichia coli; 60 mg/kg, similar operations) was “ineffective”.
For `Cl.N=C(N)Cc1ccc(Br)cc1` [2-(4-bromophenyl)acetamidine hydrochloride], the “urinary antiseptic activity, PV” value (Proteus vulgaris; urine at 1 hour) was “+”, the “urinary antiseptic activity, PV” value (Proteus vulgaris; urine at 4 hours) was “+” and the analgesic activity [2] was “no significant”. For the same compound, the anorectic activity [2] was “no significant”, the anti-thrombotic activity [2] was “some anti-thrombotic activity” and the antidepressant activity [2] was “no significant”. For the same compound, the hypotensive activity [2] was “no significant”, the sedative activity [2] was “no significant” and the weight gain rate (Proteus mirabilis [3]; 50 mg/kg per day, 14 days) was “normal in all but one of the rats”. For the same compound, the “weight gain rate after the tenth day” value (Proteus mirabilis [3]; 50 mg/kg per day, after the tenth day) was “normal for all the rats in this group after the tenth day”, the weight gain rate (Proteus mirabilis [3]; 100 mg/kg per day, 2-(4-bromophenyl)-acetamidine hydrochloride group) was “approximately mormal in all but two of the rats” and the “weight gain after the sixth day” value (Proteus mirabilis [3]; 100 mg/kg per day, after the sixth day) was “normal weight gain is observed with all but one of the test animals”. The “gross pathological changes attributable to the infection” value (Proteus mirabilis [3]; [7]) was “No gross pathological changes attributable to the infection”, the “infecting Proteus organism in swab and urine cultures” value (Proteus mirabilis [3]; [7]) was “no evidence of the infecting Proteus organism” and the “bacteriological culture of swabs and urine” value (Proteus mirabilis [3]; 50 or 100 mg/kg per day, 14 days, except slight E. coli growth in one rat) was “bacteriologically sterile”. The “growth of E. coli in urine and kidney swab cultures” value (Proteus mirabilis [3]; 50 or 100 mg/kg per day, one of the rats, attributed to contamination during autopsy) was “slight growth of E. coli noted in the urine and one of the kidney swabs from one of the rats”, the LD50 at 24 h [4] was 562 mg/kg and the “antimicrobial activity of urine against Proteus species” value [1] was “active”. For the same compound, the “antimicrobial activity of urine against Pseudomonas aeruginosa” value (Pseudomonas aeruginosa) was “active”, the “urinary antiseptic activity, PA” value (Pseudomonas aeruginosa; urine at 1 hour) was “+” and the “urinary antiseptic activity, PA” value (Pseudomonas aeruginosa; urine at 4 hours) was “+”. The “Percent Infection (percent of surviving rats with Proteus infection of any degree)” value (from here on “Percent Infection”) (Proteus mirabilis [5]; 50 mg/kg) was 60.0%, the “Percent Pathology (percent total pathology signs observed over total possible observations times 100)” value (“Percent Pathology” below) (Proteus mirabilis [5]; 50 mg/kg) was 13.6% and the “Percent Weight Gain” value (Proteus mirabilis [5]; 50 mg/kg) was 16.6%. For the same compound, the “Percent Infection” value (Proteus mirabilis [5]; 100 mg/kg) was 20.0%, the “Percent Pathology” value (Proteus mirabilis [5]; 100 mg/kg) was 12.7% and the “Percent Weight Gain” value (Proteus mirabilis [5]; 100 mg/kg) was 19.2%. The “antimicrobial activity of urine against E. coli” value (Escherichia coli; [8]) was “active”, the “urinary antiseptic activity, EC” value (Escherichia coli; urine at 1 hour) was “+” and the “urinary antiseptic activity, EC” value (Escherichia coli; urine at 4 hours) was “+”. For the same compound, the “urinary antiseptic activity, EC” value (Escherichia coli; urine at 24 hours) was “+”.
For `Cl.NC(Cc1ccc(Br)cc1)=NO` [2-(4-bromophenyl)acetamidoxime hydrochloride], the “antimicrobial activity of urine against Proteus species” value [1] was “active”, the “antimicrobial activity of urine against Pseudomonas aeruginosa” value (Pseudomonas aeruginosa) was “active” and the “antimicrobial activity of urine against E. coli” value (Escherichia coli; [8]) was “active”.
With `Cl.N=C(N)COc1ccc(Cl)cc1` [2-(4-chlorophenoxy)acetamidine hydrochloride, reference compound] the “antimicrobial activity of urine against Proteus” value [1] was “ineffective”, the “antimicrobial activity of urine against Pseudomonas” value (Pseudomonas aeruginosa) was “ineffective” and the “antimicrobial activity of urine against E. coli” value (Escherichia coli; 60 mg/kg, similar operations) was “ineffective”.
With `Cl.N=C(N)Cc1ccc(Cl)cc1` [2-(4-chlorophenyl)acetamidine hydrochloride] the “antimicrobial activity of urine against Proteus species” value [1] was “active”, the “antimicrobial activity of urine against Pseudomonas aeruginosa” value (Pseudomonas aeruginosa) was “active” and the “antimicrobial activity of urine against E. coli” value (Escherichia coli; [8]) was “active”.
In the case of `Cl.NC(Cc1ccc(Cl)cc1)=NO` [2-(4-chlorophenyl)acetamidoxime hydrochloride], the “antimicrobial activity of urine against Proteus species” value [1] is reported as “active”, the “antimicrobial activity of urine against Pseudomonas aeruginosa” value (Pseudomonas aeruginosa) is reported as “active” and the “antimicrobial activity of urine against E. coli” value (Escherichia coli; [8]) is reported as “active”.
For `Cl.NC(Cc1ccc([N+](=O)[O-])cc1)=NO` [2-(4-nitrophenyl)acetamidoxime hydrochloride, reference compound], the “antimicrobial activity of urine against Proteus” value [1] was “not against the Pseudomonas or Proteus test organisms”, the “antimicrobial activity of urine against Pseudomonas” value (Pseudomonas aeruginosa) was “not against the Pseudomonas or Proteus test organisms” and the “antimicrobial activity of urine against E. coli” value (Escherichia coli; 60 mg/kg, similar operations) was “effective against E. coli”.
With `NC(Cc1ccccc1)=NO` [2-phenylacetamidioxime hydrochloride, reference compound] the “antimicrobial activity of urine against Proteus” value [1] was “ineffective”, the “antimicrobial activity of urine against Pseudomonas” value (Pseudomonas aeruginosa) was “ineffective” and the “antimicrobial activity of urine against E. coli” value (Escherichia coli; 60 mg/kg, similar operations) was “ineffective”.
With `CCn1cc(C(=O)O)c(=O)c2ccc(C)nc21` [Nalidixic acid, nalidixic acid, reference compound] the “urinary antiseptic activity, PV” value (Proteus vulgaris; urine at 1 hour) was “+”, the “urinary antiseptic activity, PV” value (Proteus vulgaris; urine at 4 hours) was “+” and the “bacteriological culture of kidney pelvis swabs and bladder urine” value (Proteus mirabilis [3]; 100 mg/kg per day, 14 days) was “bacteriologically sterile”. For the same compound, the “gross pathology attributable to the infection” value (Proteus mirabilis [3]; 100 mg/kg per day, 14 days) was “No gross pathology attributable to the infection”, the weight gain (Proteus mirabilis [3]; 100 mg/kg per day, 14 days) was “gain weight normally” and the “urinary antiseptic activity, PA” value (Pseudomonas aeruginosa; urine at 4 hours) was “+”. For the same compound, the “urinary antiseptic activity, EC” value (Escherichia coli; urine at 1 hour) was “+”, the “urinary antiseptic activity, EC” value (Escherichia coli; urine at 4 hours) was “+” and the “Mean Bacterial Count (number of organisms per kidney)” value (Proteus mirabilis [6]; 50 mg/kg) was 3.20 Log10. The “Mean Bacterial Count (number of organisms per kidney)” value (Proteus mirabilis [6]; 100 mg/kg) was 2.56 Log10.
With `O=C1CN(/N=C/c2ccc([N+](=O)[O-])o2)C(=O)N1` [Nitrofurantoin, nitrofurantoin, reference compound] the “Percent Infection” value (Proteus mirabilis [5]; 100 mg/kg) was 33.0%, the “Percent Pathology” value (Proteus mirabilis [5]; 100 mg/kg) was 13.6% and the “Percent Weight Gain” value (Proteus mirabilis [5]; 100 mg/kg) was 16.9%. The “Percent Weight Gain, excluding one rat with unexplained severe weight loss” value (Proteus mirabilis [5]; 100 mg/kg, excluding one rat) was 20.7%.
For gentamicin, the “urinary antiseptic activity, PV” value (Proteus vulgaris; urine at 1 hour) was “+”, the “urinary antiseptic activity, PV” value (Proteus vulgaris; urine at 4 hours) was “+” and the “urinary antiseptic activity, EC” value (Escherichia coli; urine at 1 hour) was “+”.
